Our source for the TGI and GI50 values is PubChem BioAssay (NCI).

Test systems include SK-MEL-2 melanoma; MDA-MB-231 breast; SK-OV-3 ovarian; MCF7 breast; COLO 205 colon; DU-145 prostate; NCI-H23 lung; ACHN renal; T-47D breast; NCI/ADR-RES ovarian; MDA-N; A549 NSCLC.
Holding throughout (experiment): NCI-60 cell line screen, 48 h

Several values for one entry are separate records, joined by “and”; a condition that tells them apart may be missing. Equal entries are not always repeated.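 Following 48 hours of exposure in 96-well plates, responses at five concentrations were used to interpolate endpoints linearly. GI50: concentration for 50% inhibition of growth. Definition used: TGI = concentration required for complete inhibition of growth.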 Where a SMILES comes first, the peptide text is derived from it. Bridges are numbered along the chain shown (N, C = ends). The star is where a group is joined. Cbz = O=C(OCc1ccccc1)*

As for `CC1(C)CCCCCCCCCC(C)(CCCCCCCCCCCCO)C1=O` (stereo not given), the TGI worked out at 32.7 µM with SK-MEL-2 melanoma; 29.9 µM in the assay on MDA-MB-231 breast; 33.2 µM in the assay on SK-OV-3 ovarian; 30.5 µM in the assay with MCF7 breast; 62.7 µM in the assay with COLO 205 colon; 32 µM in the assay on DU-145 prostate. The TGI in the assay with NCI-H23 lung was determined as 33.7 µM; in the assay with ACHN renal, 28.4 µM; in the assay on T-47D breast, 34 µM; in the assay on NCI/ADR-RES ovarian, 32.6 µM; in the assay with MDA-N it was 33.7 µM; in the assay on A549 NSCLC it was 29.9 µM.

Consider `C=C(Br)CNCC(=C)Br`, for which the TGI in the assay on SK-MEL-2 melanoma, with MDA-MB-231 breast, with SK-OV-3 ovarian, in the assay with MCF7 breast, in the assay with COLO 205 colon and with DU-145 prostate was more than 100 µM each time. For the same molecule, the TGI with NCI-H23 lung, in the assay with ACHN renal, in the assay on T-47D breast, in the assay with NCI/ADR-RES ovarian, with MDA-N and in the assay on A549 NSCLC was more than 100 µM throughout.

As to `COC(=O)C1CCCCNC(=O)CCC(NC(=O)OCc2ccccc2)C(=O)N1` (stereo not drawn) (Cbz-Glu-Lys-OMe; lactam 1-2; configuration not given here), the TGI with SK-MEL-2 melanoma, with MDA-MB-231 breast, in the assay on SK-OV-3 ovarian, in the assay on MCF7 breast, in the assay on COLO 205 colon and with DU-145 prostate was more than 100 µM each time. For the same molecule, the TGI with NCI-H23 lung, in the assay with ACHN renal, with T-47D breast, with NCI/ADR-RES ovarian, in the assay on MDA-N and in the assay on A549 NSCLC was more than 100 µM each time.

Turning to `O=C1c2ccccc2-c2nc(-c3ccccc3)cc3c2c1nc1ccccc13`, the TGI in the assay on SK-MEL-2 melanoma came to 51.4 µM; with MDA-MB-231 breast it was 59.3 µM; with SK-OV-3 ovarian, 55.2 µM; with MCF7 breast, 21.9 µM; with COLO 205 colon, 65.3 µM; in the assay on DU-145 prostate, 29.6 µM. The TGI in the assay on NCI-H23 lung is 16.1 µM; in the assay on ACHN renal it was 91.5 µM; in the assay with T-47D breast it was more than 100 µM; in the assay on NCI/ADR-RES ovarian, 47.1 µM; in the assay with MDA-N, 3.67 µM; in the assay on A549 NSCLC, 52.9 µM.

`O=[N+]([O-])c1ccc2c(Nc3ccccc3-c3ccccc3Nc3c4ccccc4nc4cc([N+](=O)[O-])ccc34)c3ccccc3nc2c1`: the TGI in the assay with SK-MEL-2 melanoma is 6.55 µM; in the assay with MDA-MB-231 breast, 6.38 µM; with SK-OV-3 ovarian it was more than 56.2 µM; in the assay on MCF7 breast, 39.3 µM; with COLO 205 colon, 9.53 µM; with DU-145 prostate, 35.2 µM. The TGI in the assay with NCI-H23 lung is 34.7 µM; in the assay with ACHN renal, 49 µM; with T-47D breast, 20.3 µM; in the assay with NCI/ADR-RES ovarian, 25.7 µM; with MDA-N it was 3.29 µM; with A549 NSCLC, more than 56.2 µM.

On to `Cc1nn(C)c2nc3ccc(Cl)cc3c(-c3ccccc3)c12`, for which the TGI in the assay on SK-MEL-2 melanoma, in the assay on MDA-MB-231 breast, with SK-OV-3 ovarian, in the assay on MCF7 breast, in the assay on COLO 205 colon and in the assay on DU-145 prostate was more than 100 µM throughout. Further, the TGI with NCI-H23 lung, in the assay with ACHN renal, in the assay on T-47D breast, in the assay on NCI/ADR-RES ovarian, in the assay with MDA-N and in the assay with A549 NSCLC was more than 100 µM each time.

In the case of `Cc1cc(O)ccc1C1(c2ccc(F)cc2)OC(=O)c2ccccc21` (stereo not given), the TGI in the assay on SK-MEL-2 melanoma came to 17.4 µM; with MDA-MB-231 breast, 26.3 µM; in the assay on SK-OV-3 ovarian, 14.2 µM; with MCF7 breast, 4.38 µM; in the assay on COLO 205 colon it was 11.2 µM; with DU-145 prostate it was 16.1 µM. In addition, the TGI was 3.27 µM in the assay on NCI-H23 lung; 12.6 µM in the assay on ACHN renal; 0.974 µM in the assay with T-47D breast; 2.25 µM with NCI/ADR-RES ovarian; 25 µM in the assay with MDA-N; 18.3 µM with A549 NSCLC.

Take `Cc1ccc(OCC2OC(n3cnc4c(Cl)ncnc43)CC2Oc2ccc(C)cc2)cc1` (stereo not given): the TGI in the assay with SK-MEL-2 melanoma was 30.2 µM and 33.8 µM; in the assay on MDA-MB-231 breast, 17.8 µM and 30.6 µM; in the assay with SK-OV-3 ovarian, more than 81.1 µM; in the assay on MCF7 breast, 12.6 µM and > 58.8 µM; in the assay with COLO 205 colon, 19.4 µM and 74.4 µM; in the assay on DU-145 prostate, 3.65 µM and 28.1 µM. The TGI is 7.99 µM and 27.8 µM in the assay with NCI-H23 lung; 24.9 µM and 3.73 µM in the assay with ACHN renal; 49.5 µM and > 100 µM with T-47D breast; 36.5 µM and 40.8 µM in the assay with NCI/ADR-RES ovarian; 11.2 µM and 35.7 µM in the assay on MDA-N; 15.9 µM and 37 µM with A549 NSCLC. Besides, the GI50 in the assay on MCF7 breast is 4.44 µM and 21 µM; in the assay on COLO 205 colon, 6.45 µM and 20.8 µM; with DU-145 prostate, 1.96 µM and 13.3 µM; in the assay on NCI-H23 lung, 3.03 µM and 11.9 µM; in the assay on ACHN renal, 11.1 µM and 1.98 µM; in the assay with T-47D breast, 8.39 µM and 29.2 µM. The GI50 in the assay with MDA-N was 4.63 µM and 16.6 µM; with A549 NSCLC it was 7.37 µM and 18.9 µM.

Consider `N#CC12C(=O)N3C(=NC(c4ccccc4)NC3c3ccccc3)C1(C#N)C(c1ccccc1)NC1=C2CCCC1` (stereo not given), for which the TGI in the assay on SK-MEL-2 melanoma, with MDA-MB-231 breast, with SK-OV-3 ovarian, with MCF7 breast, with COLO 205 colon and in the assay with DU-145 prostate was more than 100 µM each time. Also, the TGI with NCI-H23 lung, in the assay on ACHN renal, in the assay with T-47D breast, in the assay on NCI/ADR-RES ovarian, in the assay on MDA-N and in the assay on A549 NSCLC was more than 100 µM throughout.

For the molecule `O=C1NC2CCCCC2N=C1/C(C(=O)c1ccccc1)=C(\O)c1ccccc1` (stereo not given), the TGI in the assay with SK-MEL-2 melanoma is more than 100 µM; in the assay on MDA-MB-231 breast, 83 µM; in the assay with SK-OV-3 ovarian, 84.8 µM; in the assay with MCF7 breast it was more than 100 µM; in the assay on COLO 205 colon, more than 100 µM; with DU-145 prostate, more than 100 µM. In addition, the TGI in the assay on NCI-H23 lung, in the assay on ACHN renal, in the assay on T-47D breast, in the assay with NCI/ADR-RES ovarian, in the assay with MDA-N and in the assay with A549 NSCLC was more than 100 µM in each case.

In the case of `CCCCCn1c(=O)c2c(=O)[nH][nH]c2c2ccccc21`, the TGI in the assay on SK-MEL-2 melanoma, in the assay with MDA-MB-231 breast, with SK-OV-3 ovarian, in the assay with MCF7 breast, in the assay on COLO 205 colon and with DU-145 prostate was more than 100 µM each time. The TGI in the assay on NCI-H23 lung, in the assay with ACHN renal, with T-47D breast, in the assay on NCI/ADR-RES ovarian, in the assay on MDA-N and in the assay on A549 NSCLC was more than 100 µM each time.
